Assay results taken from article PMC9005681, “Use of AD Informer Set compounds to explore validity of novel targets in Alzheimer's disease pathology” (Alzheimer's & Dementia : Translational Research & Clinical …, 2022).
Where “and” joins values, the source holds several entries; their conditions need not be identical. Equal entries are not always repeated.

Assays:
Assay in all cases: PDSP GPCR panel primary binding assays at 10 μM
[1] = biological target: T1, cloned human or rodent CNS receptors, channels, and transporters (PDSP panel) (Homo sapiens, UniProt P23975); conditions: primary assay
T1 construct: expressed in transfected cells
T1 sequence (P23975 whole entry): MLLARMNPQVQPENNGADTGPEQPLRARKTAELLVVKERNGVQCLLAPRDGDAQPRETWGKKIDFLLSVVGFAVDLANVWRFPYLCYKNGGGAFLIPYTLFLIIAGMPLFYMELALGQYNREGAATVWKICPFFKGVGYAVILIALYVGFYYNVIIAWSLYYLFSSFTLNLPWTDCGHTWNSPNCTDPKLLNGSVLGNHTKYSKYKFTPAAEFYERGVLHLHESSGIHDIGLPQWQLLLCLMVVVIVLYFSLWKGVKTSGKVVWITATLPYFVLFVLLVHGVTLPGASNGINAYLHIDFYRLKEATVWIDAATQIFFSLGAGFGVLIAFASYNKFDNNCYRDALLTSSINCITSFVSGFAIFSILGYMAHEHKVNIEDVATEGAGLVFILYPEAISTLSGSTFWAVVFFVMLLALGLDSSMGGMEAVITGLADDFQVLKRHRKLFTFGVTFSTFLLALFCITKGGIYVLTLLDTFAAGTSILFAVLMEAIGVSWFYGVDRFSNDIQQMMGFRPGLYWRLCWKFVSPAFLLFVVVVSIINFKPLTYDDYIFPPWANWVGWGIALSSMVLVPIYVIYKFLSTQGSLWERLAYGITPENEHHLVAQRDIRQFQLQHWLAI
Outline: (§1)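 Competition binding with radiolabeled standard ligands, single 10 μM concentration, four replicates. Targets showing over 50% displacement were followed up with 11-point titrations in triplicate.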

[2] = biological target: T2, cloned human or rodent CNS receptors, channels, and transporters (PDSP panel) (Homo sapiens, UniProt P47898); conditions: primary assay
T2 construct: expressed in transfected cells
T2 sequence (P47898 whole entry): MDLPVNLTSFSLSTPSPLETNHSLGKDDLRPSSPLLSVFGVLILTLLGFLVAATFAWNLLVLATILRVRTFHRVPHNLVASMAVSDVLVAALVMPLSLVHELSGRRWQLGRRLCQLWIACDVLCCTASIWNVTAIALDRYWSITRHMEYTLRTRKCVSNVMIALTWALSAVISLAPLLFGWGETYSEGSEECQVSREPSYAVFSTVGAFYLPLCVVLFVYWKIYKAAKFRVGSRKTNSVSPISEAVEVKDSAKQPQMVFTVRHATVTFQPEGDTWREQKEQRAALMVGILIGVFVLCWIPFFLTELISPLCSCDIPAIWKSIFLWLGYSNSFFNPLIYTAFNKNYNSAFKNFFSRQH
Outline: as §1

[3] = biological target: T3, cloned human or rodent CNS receptors, channels, and transporters (PDSP panel) (Homo sapiens, UniProt P35368); conditions: primary assay
T3 construct: expressed in transfected cells
T3 sequence (P35368 1-520): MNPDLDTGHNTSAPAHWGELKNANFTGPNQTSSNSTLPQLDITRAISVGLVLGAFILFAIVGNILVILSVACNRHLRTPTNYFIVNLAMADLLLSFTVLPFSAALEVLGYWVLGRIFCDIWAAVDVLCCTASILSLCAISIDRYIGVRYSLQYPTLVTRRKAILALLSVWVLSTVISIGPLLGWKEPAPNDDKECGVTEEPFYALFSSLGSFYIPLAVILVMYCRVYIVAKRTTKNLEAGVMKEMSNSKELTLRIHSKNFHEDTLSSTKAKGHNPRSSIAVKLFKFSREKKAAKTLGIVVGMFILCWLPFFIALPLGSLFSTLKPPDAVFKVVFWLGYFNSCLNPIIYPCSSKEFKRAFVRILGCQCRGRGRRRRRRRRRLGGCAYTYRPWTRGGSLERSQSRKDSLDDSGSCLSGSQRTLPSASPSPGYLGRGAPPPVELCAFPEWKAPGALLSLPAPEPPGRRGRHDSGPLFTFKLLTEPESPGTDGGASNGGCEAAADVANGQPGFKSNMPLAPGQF
Outline: as §1

[4] = biological target: T4, cloned human or rodent CNS receptors, channels, and transporters (PDSP panel) (Homo sapiens, UniProt P11229); conditions: M1, primary assay; for Mean %: mean inhibition; for Inhibition 1: replicate 1; for Inhibition 2: replicate 2; for Inhibition 3: replicate 3; for Inhibition 4: replicate 4
T4 construct: expressed in transfected cells
T4 sequence (P11229 1-460): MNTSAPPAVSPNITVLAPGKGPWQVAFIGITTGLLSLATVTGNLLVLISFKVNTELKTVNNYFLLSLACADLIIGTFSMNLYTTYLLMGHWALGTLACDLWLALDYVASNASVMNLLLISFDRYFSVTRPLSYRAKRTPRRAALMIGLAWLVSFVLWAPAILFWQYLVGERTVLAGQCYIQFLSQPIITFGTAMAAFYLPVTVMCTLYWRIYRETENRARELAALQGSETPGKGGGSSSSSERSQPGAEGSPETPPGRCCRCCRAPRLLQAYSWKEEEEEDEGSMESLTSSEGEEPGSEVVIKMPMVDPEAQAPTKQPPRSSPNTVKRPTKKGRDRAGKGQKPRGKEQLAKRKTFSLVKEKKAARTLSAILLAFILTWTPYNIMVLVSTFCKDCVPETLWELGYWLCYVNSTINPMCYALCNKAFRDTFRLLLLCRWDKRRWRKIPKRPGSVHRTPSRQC
Outline: as §1

[5] = biological target: T5, cloned human or rodent CNS receptors, channels, and transporters (PDSP panel) (Homo sapiens, UniProt P25100); conditions: primary assay
T5 construct: expressed in transfected cells
T5 sequence (P25100 1-572): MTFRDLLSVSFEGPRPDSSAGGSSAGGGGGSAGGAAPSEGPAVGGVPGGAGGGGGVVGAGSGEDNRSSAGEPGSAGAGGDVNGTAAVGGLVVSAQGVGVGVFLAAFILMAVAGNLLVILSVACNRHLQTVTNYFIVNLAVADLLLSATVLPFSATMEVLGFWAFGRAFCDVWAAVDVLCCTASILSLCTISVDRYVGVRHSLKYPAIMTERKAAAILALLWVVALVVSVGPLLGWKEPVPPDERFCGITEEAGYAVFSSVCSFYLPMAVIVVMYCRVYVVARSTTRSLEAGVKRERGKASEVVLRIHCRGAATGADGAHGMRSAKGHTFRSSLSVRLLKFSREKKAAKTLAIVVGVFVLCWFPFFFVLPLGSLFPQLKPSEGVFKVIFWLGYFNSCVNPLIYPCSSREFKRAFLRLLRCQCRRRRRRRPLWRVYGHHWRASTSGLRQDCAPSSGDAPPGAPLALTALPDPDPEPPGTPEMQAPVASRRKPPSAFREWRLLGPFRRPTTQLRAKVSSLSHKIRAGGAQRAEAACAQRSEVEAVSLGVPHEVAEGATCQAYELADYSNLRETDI
Outline: as §1

[6] = biological target: T6, cloned human or rodent CNS receptors, channels, and transporters (PDSP panel) (Homo sapiens, UniProt P28223); conditions: primary assay
T6 construct: expressed in transfected cells
T6 sequence (P28223 whole entry): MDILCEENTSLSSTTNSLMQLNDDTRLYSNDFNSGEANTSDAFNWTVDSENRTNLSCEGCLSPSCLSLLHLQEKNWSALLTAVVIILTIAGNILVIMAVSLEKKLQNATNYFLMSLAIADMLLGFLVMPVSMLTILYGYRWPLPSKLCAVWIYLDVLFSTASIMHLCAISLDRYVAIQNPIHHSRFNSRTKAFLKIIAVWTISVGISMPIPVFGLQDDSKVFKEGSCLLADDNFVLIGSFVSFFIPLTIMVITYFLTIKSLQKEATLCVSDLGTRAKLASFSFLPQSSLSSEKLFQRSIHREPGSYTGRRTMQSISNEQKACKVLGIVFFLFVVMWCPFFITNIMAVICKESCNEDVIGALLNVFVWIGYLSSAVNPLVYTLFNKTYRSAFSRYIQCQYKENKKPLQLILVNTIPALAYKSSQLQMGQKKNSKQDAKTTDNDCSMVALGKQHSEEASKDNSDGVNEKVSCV
Outline: as §1

[7] = biological target: T7, cloned human or rodent CNS receptors, channels, and transporters (PDSP panel) (Homo sapiens, UniProt P21728); conditions: primary assay
T7 construct: expressed in transfected cells
T7 sequence (P21728 whole entry): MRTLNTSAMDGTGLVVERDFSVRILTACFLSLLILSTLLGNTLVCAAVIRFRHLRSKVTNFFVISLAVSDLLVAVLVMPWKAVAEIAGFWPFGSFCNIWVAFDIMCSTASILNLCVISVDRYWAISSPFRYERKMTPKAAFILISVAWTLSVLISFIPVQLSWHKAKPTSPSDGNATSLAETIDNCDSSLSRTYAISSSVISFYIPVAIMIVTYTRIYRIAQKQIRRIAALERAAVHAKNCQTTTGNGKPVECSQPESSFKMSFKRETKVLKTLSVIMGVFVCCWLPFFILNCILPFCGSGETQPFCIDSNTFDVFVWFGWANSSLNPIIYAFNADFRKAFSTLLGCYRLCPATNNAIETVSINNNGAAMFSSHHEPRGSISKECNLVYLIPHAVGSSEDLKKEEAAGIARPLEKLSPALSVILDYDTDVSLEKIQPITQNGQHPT
Outline: as §1

O=c1oc2ccccc2cc1-c1cn2cc(Cc3ccc(F)cc3)sc2n1 [UNC10302680A, iMDK]
Mean % ([1]; NET, mean inhibition): 3.1% | Inhibition 1 ([1]; NET, replicate 1): -7.15% | Inhibition 2 ([1]; NET, replicate 2): -15.77% | Inhibition 3 ([1]; NET, replicate 3): -1.08% | Inhibition 4 ([1]; NET, replicate 4): 36.38% | Inhibition 1 ([1]; Receptor NET, 10 μM): 34.12% | Inhibition 2 ([1]; Receptor NET, 10 μM): 0.12% | Inhibition 3 ([1]; Receptor NET, 10 μM): -3.41% | Inhibition 4 ([1]; Receptor NET, 10 μM): -3.8% | Mean % ([1]; Receptor NET, 10 μM, mean of Inhibition 1-4): 6.76% | Inhibition 1 ([2]; Receptor 5-HT5A, 10 μM): -14.99% | Inhibition 2 ([2]; Receptor 5-HT5A, 10 μM): -18.16% | Inhibition 3 ([2]; Receptor 5-HT5A, 10 μM): -6.28% | Inhibition 4 ([2]; Receptor 5-HT5A, 10 μM): -0.35% | Mean % ([2]; Receptor 5-HT5A, 10 μM, mean of Inhibition 1-4): -9.95% | Inhibition 1 ([3]; Receptor Alpha1B, 10 μM): 2.49% | Inhibition 2 ([3]; Receptor Alpha1B, 10 μM): 0.66% | Inhibition 3 ([3]; Receptor Alpha1B, 10 μM): -2.09% | Inhibition 4 ([3]; Receptor Alpha1B, 10 μM): -5.18% | Mean % ([3]; Receptor Alpha1B, 10 μM, mean of Inhibition 1-4): -1.03% | Mean % [4]: 7.01% | Inhibition 1 [4]: 16.84% | Inhibition 2 [4]: 2.54% | Inhibition 3 [4]: 0.66% | Inhibition 4 [4]: 8% | Inhibition 1 ([5]; Receptor Alpha1D, 10 μM): -7.71% | Inhibition 2 ([5]; Receptor Alpha1D, 10 μM): -9.56% | Inhibition 3 ([5]; Receptor Alpha1D, 10 μM): -10.98% | Inhibition 4 ([5]; Receptor Alpha1D, 10 μM): -17.23% | Mean % ([5]; Receptor Alpha1D, 10 μM, mean of Inhibition 1-4): -11.37% | Inhibition 1 ([6]; Receptor 5-HT2A, 10 μM): 12.31% | Inhibition 2 ([6]; Receptor 5-HT2A, 10 μM): -11.86% | Inhibition 3 ([6]; Receptor 5-HT2A, 10 μM): -8.41% | Inhibition 4 ([6]; Receptor 5-HT2A, 10 μM): 9.68% | Mean % ([6]; Receptor 5-HT2A, 10 μM, mean of Inhibition 1-4): 0.43% | Inhibition 1 ([7]; Receptor D1, 10 μM): 5.91% | Inhibition 2 ([7]; Receptor D1, 10 μM): 9.31% | Inhibition 3 ([7]; Receptor D1, 10 μM): -0.89% | Inhibition 4 ([7]; Receptor D1, 10 μM): -9.8% | Mean % ([7]; Receptor D1, 10 μM, mean of Inhibition 1-4): 1.13%

CCC(=O)N1CCC(NC(=O)Nc2ccc(OC(F)(F)F)cc2)CC1 [UNC10302681A, TPPU]
Mean % ([1]; NET, mean inhibition): 2.26% and 4.05% | Inhibition 1 ([1]; NET, replicate 1): -18.41% and 34.38% | Inhibition 2 ([1]; NET, replicate 2): -17.53% and 14.34% | Inhibition 3 ([1]; NET, replicate 3): 0.52% and -19% | Inhibition 4 ([1]; NET, replicate 4): 44.45% and -13.54% | Mean % ([2]; 5-HT5A, mean inhibition): -10.71% and -8.22% | Inhibition 1 ([2]; 5-HT5A, replicate 1): 25.37% and 9.24% | Inhibition 2 ([2]; 5-HT5A, replicate 2): -13.71% and -7.98% | Inhibition 3 ([2]; 5-HT5A, replicate 3): -53.57% and -12.99% | Inhibition 4 ([2]; 5-HT5A, replicate 4): -0.94% and -21.14% | Mean % ([3]; Alpha1B, mean inhibition): 7.22% | Inhibition 1 ([3]; Alpha1B, replicate 1): 0.2% | Inhibition 2 ([3]; Alpha1B, replicate 2): 16.24% | Inhibition 3 ([3]; Alpha1B, replicate 3): 7.3% | Inhibition 4 ([3]; Alpha1B, replicate 4): 5.13% | Mean % [4]: -5.22% | Inhibition 1 [4]: 4.61% | Inhibition 2 [4]: -16.27% | Inhibition 3 [4]: -3.29% | Inhibition 4 [4]: -5.93% | Mean % ([5]; Alpha1D, mean inhibition): -10.94% | Inhibition 1 ([5]; Alpha1D, replicate 1): -5.01% | Inhibition 2 ([5]; Alpha1D, replicate 2): -6% | Inhibition 3 ([5]; Alpha1D, replicate 3): -20.78% | Inhibition 4 ([5]; Alpha1D, replicate 4): -11.97% | Mean % ([6]; 5-HT2A, mean inhibition): -2.37% | Inhibition 1 ([6]; 5-HT2A, replicate 1): 0.31% | Inhibition 2 ([6]; 5-HT2A, replicate 2): -4.96% | Inhibition 3 ([6]; 5-HT2A, replicate 3): -8.74% | Inhibition 4 ([6]; 5-HT2A, replicate 4): 3.92% | Mean % ([7]; D1, mean inhibition): -1.82% | Inhibition 1 ([7]; D1, replicate 1): -5.26% | Inhibition 2 ([7]; D1, replicate 2): -2.83% | Inhibition 3 ([7]; D1, replicate 3): -3.8% | Inhibition 4 ([7]; D1, replicate 4): 4.61%
